In BindingDB's records for patent US11339122 (University of Pittsburgh, 2022):
pKi: −log10 of the molar value.

Target: Transient receptor potential cation channel subfamily V member 1 (Homo sapiens, UniProt Q8NER1)
Experiment: RTX Competition Binding Assay.
Method: Binding studies with [3H]RTX were carried out as follows. The binding assay mixtures were prepared in 1.5 ml centrifuge tubes and consisted of a fixed concentration (approximately 2 nM) of [3H]RTX (37 Ci/mmol specific activity, PerkinElmer Life Sciences), various concentrations of competing ligands, and […] of membranes from induced CHO-hTRPV1 expressing cells (approximately 1-3×10^6 cells) in Dulbecco's phosphate buffered saline (DPBS, with Ca2+ & Mg2+) for a total volume of 350 μl. The assay mix contained bovine serum albumin at a final concentration of 0.25 mg/ml (Cohn fraction V; Sigma-Aldrich, St. Louis, Mo.). In each set of experiments, nonspecific binding were determined in the presence of 200 nM non-radioactive RTX. The binding reaction was initiated by placing the assay mixture in a 37° C. shaking water bath for 60 minutes ([…]). The assay mixture was then chilled on ice for 2-3 min before adding 100 μl of α1-acid glycoprotein (2 mg/ml; Sigma-Aldrich) and mixed thoroughly. The tubes were kept on ice for an additional 10 min. The bound and free ligands were then separated by centrifugation (12,200 rpm for 15 minutes) in a Beckman Coulter centrifuge Allegra 21R. 200 μl of supernatant was collected for determination of free ligand. The remainder was removed by aspiration.

Transient receptor potential cation channel subfamily V member 1, sequence (Q8NER1 whole entry): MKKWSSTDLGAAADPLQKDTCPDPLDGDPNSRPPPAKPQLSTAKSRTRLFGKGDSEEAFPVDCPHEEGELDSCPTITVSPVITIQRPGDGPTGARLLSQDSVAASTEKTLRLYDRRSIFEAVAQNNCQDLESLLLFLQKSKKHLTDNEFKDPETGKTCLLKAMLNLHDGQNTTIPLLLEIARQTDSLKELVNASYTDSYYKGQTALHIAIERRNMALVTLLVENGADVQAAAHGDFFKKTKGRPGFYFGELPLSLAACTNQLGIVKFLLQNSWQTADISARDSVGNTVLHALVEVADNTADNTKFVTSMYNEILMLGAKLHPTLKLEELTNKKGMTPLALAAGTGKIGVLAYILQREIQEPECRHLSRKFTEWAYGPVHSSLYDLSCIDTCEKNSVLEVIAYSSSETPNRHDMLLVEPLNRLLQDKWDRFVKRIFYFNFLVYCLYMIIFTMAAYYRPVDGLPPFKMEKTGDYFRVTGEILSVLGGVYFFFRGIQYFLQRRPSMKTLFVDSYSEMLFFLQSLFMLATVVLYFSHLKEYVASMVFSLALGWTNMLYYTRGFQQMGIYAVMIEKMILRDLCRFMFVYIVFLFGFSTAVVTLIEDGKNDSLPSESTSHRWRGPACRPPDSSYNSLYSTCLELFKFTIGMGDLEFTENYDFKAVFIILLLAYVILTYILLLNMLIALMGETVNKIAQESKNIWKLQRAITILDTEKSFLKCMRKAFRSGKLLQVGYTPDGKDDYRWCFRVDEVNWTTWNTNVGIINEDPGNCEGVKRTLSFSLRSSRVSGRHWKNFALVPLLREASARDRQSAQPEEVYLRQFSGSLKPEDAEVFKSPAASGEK

- pKi: 5.55
Structure (SMILES): CCOC(=O)c1ccc(NC(=O)Nc2ccc(F)cc2)cc1 [US11339122, Compound 5b]
